Test results reported in patent US20130034613A1, “FORMULATIONS OF PHOSPHITES” (Ceradis B.V., priority 2009, published 2013).

Tests used:
Assay type in all cases: in vivo
[1] = test system: garden cress (Lepidium sativum) seedlings; experiment: Phytotoxicity towards garden cress seedlings after spraying; conditions: summary of Table 2
Procedure: Two compositions of potassium phosphite are prepared, one with and one without calcium lignosulfonate (Borresperse CA®, Borregaard LignoTech Ltd, Germany). The formulation and the concentration in the spray solution are calculated in such a way that the dosage of phosphite is the same for both compositions (120 mM=14.4 g potassium phosphite/1 spray solution). A control is added in which the adjuvants alone (without lignosulfonate or phosphite) are tested.
Various adjuvants are added to the two compositions: alcohol ethoxylate (commercial product: Genapol EP 2584, Clariant, Germany), di-octyl sulfosuccinate (commercial product Emulsogen SF8, Clariant, Germany), quaternary ammonium surfactant (commercial product Geronol CF/PN-20N, Rhodia, France) and ethoxylated tallow amine (commercial product Ethomeen S25, Akzo Nobel, The Netherlands). All adjuvant products arc added at a concentration of 5 g/l spray solution. For both compositions, a control is added without adjuvant.
Garden cress seedlings are grown in plastic boxes (100 seeds/box) on mineral sand. Boxes were kept at 22° C. One week old seedlings are sprayed with the various spray solutions until run-off of the solutions occurs. Phytotoxicity is observed three days after spraying. The percentage of seedlings dead or showing phytotoxicity symptoms is estimated. […]

[2] = test system: grapevine cultivar Merlot; experiment: Phytotoxicity towards grapevine after spraying; conditions: summary of Table 4
Source text: The experimental design is a randomized block design with a plot size of 3 plants per plot. The experiment has 4 replications. Plants are sprayed with solution until run-off occurs. The composition and the dose rate of the different treatments are the same as in example 1.
Phytotoxicity is observed one week after spraying. Per plant, the percentage leaf area dead or showing phytotoxicity symptoms was estimated.

rose = experiment: Phytotoxicity towards rose after spraying (Example 2); conditions: summary of Table 3
Source text: The experimental design is a randomized block design with a plot size of 3 plants per plot. The experiment has 4 replications. Plants are sprayed with solution until run-off occurs. The composition and the dose rate of the different treatments are the same as in example 1, except that calcium lignosulfonate was replaced by sodium lignosulfonate (Borresperse NA®, Borregaard LignoTech Ltd, Germany).
Phytotoxicity is observed one week after spraying. Per plant, the percentage leaf area dead or showing phytotoxicity symptoms is estimated.

Measured: phytotoxicity (in words)

potassium phosphite
phytotoxic: all assays above
